One assay has as its system HTT mRNA. The assay is described as follows: RT-qPCR splicing assay, HTT canonical junction (CJ) and alternative junction (AJ) mRNA. Format: cell-based, human. Conditions: Homo sapiens; for AC50: increase in HTT alternative junction (AJ) mRNA, read-out: HTT AJ AC50. In outline:
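A673 cells (normalized to PPIA) or K562 cells (normalized to GAPDH or GUSB) were treated 24 h at 37 °C with an 11-point 3-fold dilution series, top 10 uM, DMSO ≤0.25%. Cell lysates went to one-step RT-qPCR measuring canonical- and alternative-junction MYB or HTT transcripts.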
(In qPCR the cycle at which signal appears reflects the starting amount.)

For another assay, the system named is HTT. Description: HiBiT protein abundance assay, HTT HiBiT K562 cell line. The note with it: HiBiT K562 cell line, 24 hours, top dose 10 μM; read-out: Effect on protein abundance, HTT (IC50 category). Format: cell-based, human. In outline:
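K562 knock-in lines with endogenous HiBiT-tagged target, 10,000 cells/well in IMDM + FBS, treated 24 h at 37° C with 10-point 3-fold dilutions (top 10 μM final; DMSO ≤0.25%). Lytic Nano-Glo HiBiT luminescence normalized to untagged K562 baseline and DMSO controls; IC50 = concentration giving 50% abundance via four-parameter fit.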
A general note: HiBiT is a short tag that completes a luciferase, so light tracks the accessible tagged protein.

Setting [1] is: decrease in HTT canonical junction (CJ) mRNA, RT-qPCR, read-out: HTT CJ IC50.
Where [2] appears, read: Table 5 panel, canonical junction qPCR, compound concentration having 50% response in CJ decrease, read-out: HTT IC50 (decrease in CJ mRNA levels).

As usually defined, the IC50 is the midpoint of a concentration-inhibition curve. Broadly, the AC50 is the midpoint of the concentration-response curve, whichever way the signal moves.

Where two headings read alike, the source gives them in different places. Some results are limits rather than exact numbers.

In the case of `Cc1cn2nc(-c3cc(N(C)C)c4c(=O)n(C5CCNC6(CC6)C5)cnc4c3)cc(C)c2n1` (stereo not drawn) [Compound 345], the IC50 with HTT mRNA (setting [1]) is < 100 nM; with HTT mRNA (setting [2]) it was < 100 nM; in the assay on HTT it was > 10000 nM. Also, the AC50 in the assay with HTT mRNA (RT-qPCR) was < 100 nM.
On to `Cc1cn2cc(-c3cc(F)c4c(=O)n([C@H]5CCN[C@H](C)C5)cnc4c3)cc(F)c2n1` [Compound 346, trans-5-fluoro-7-(8-fluoro-2-methylimidazo[1,2-a]pyridin-6-yl)-3-(2-methylpiperidin-4-yl)quina-zolin-4(3H)-one], for which the IC50 in the assay on HTT mRNA (setting [1]), in the assay with HTT mRNA (setting [2]) and with HTT was 100 to 1000 nM in each case. For the same compound, the AC50 in the assay on HTT mRNA (RT-qPCR) fell in the range of 100 to 1000 nM.
Take `Cc1cn2cc(-c3cc(F)c4c(=O)n([C@H]5CCNC[C@@H]5O)cnc4c3)cc(F)c2n1` [Compound 347, 5-fluoro-7-{8-fluoro-2-methylimidazo[1,2-a]pyridin-6-yl}-3-[(3S,4S)-3-hydroxypiperidin-4-yl]quinazolin-4-one]: the IC50 in the assay with HTT mRNA (setting [1]), in the assay with HTT mRNA (setting [2]) and in the assay on HTT was > 10000 nM throughout. In the assay with HTT mRNA (RT-qPCR), the AC50 is > 10000 nM.
Consider `Cc1cn2cc(-c3cc(F)c4c(=O)n([C@H]5CNCC[C@@H]5O)cnc4c3)cc(F)c2n1` [Compound 348, 5-fluoro-7-{8-fluoro-2-methylimidazo[1,2-a]pyridin-6-yl}-3-[(3S,4S)-4-hydroxypiperidin-3-yl]quinazolin-4-one], for which the IC50 in the assay with HTT mRNA (setting [1]), in the assay on HTT mRNA (setting [2]) and with HTT was > 10000 nM throughout. Besides, in the assay with HTT mRNA (RT-qPCR), the AC50 is > 10000 nM.
On to `Cc1cn2nc(-c3ccc4c(=O)n([C@H]5CCNC6(CC6)C5)cnc4c3)cc(C)c2n1` [Compound 349, 3-[(7S)-4-azaspiro[2.5]octan-7-yl]-7-{2,8-dimethylimidazo[1,2-b]pyridazin-6-yl}quinazolin-4-one], for which the half-maximal inhibitory concentration (IC50) in the assay on HTT mRNA (setting [1]), in the assay with HTT mRNA (setting [2]) and with HTT was 100 to 1000 nM in each case. Moreover, the AC50 with HTT mRNA (RT-qPCR) was in the range of 100 to 1000 nM.
As to `Cc1cn2nc(-c3ccc4c(=O)n([C@@H]5CCNC6(CC6)C5)cnc4c3)cc(C)c2n1` [Compound 350, 3-[(7R)-4-azaspiro[2.5]octan-7-yl]-7-{2,8-dimethylimidazo[1,2-b]pyridazin-6-yl}quinazolin-4-one], the values for the IC50 in the assay on HTT mRNA (setting [1]), in the assay with HTT mRNA (setting [2]) and in the assay on HTT were < 100 nM, < 100 nM and 100 to 1000 nM, respectively. Besides, the AC50 in the assay on HTT mRNA (RT-qPCR) is < 100 nM.
For the compound `Cc1cn2nc(-c3cc(F)c4c(=O)n(C5CCNC6(CC6)C5)cnc4c3)cc(C)c2n1` (stereo not drawn) [Compound 351], the IC50 with HTT mRNA (setting [1]), in the assay with HTT mRNA (setting [2]) and with HTT was < 100 nM in each case. In addition, the concentration at half-maximal activity (AC50) with HTT mRNA (RT-qPCR) is < 100 nM.
Regarding `Cc1cn2cc(-c3cc(F)c4c(=O)n(C5CNCCC5=O)cnc4c3)cc(F)c2n1` (stereo not drawn) [Compound 352, 5-fluoro-7-{8-fluoro-2-methylimidazo[1,2-a]pyridin-6-yl}-3-(4-oxopiperidin-3-yl)quinazolin-4-one], the IC50 in the assay with HTT mRNA (setting [1]), with HTT mRNA (setting [2]) and with HTT was > 10000 nM each time. In addition, in the assay on HTT mRNA (RT-qPCR), the AC50 was > 10000 nM.
Take `Cc1cn2cc(-c3cc(F)c4c(=O)n(C5CCCNCC5)cnc4c3)cc(F)c2n1` (stereo not drawn) [Compound 353, 3-(azepan-4-yl)-5-fluoro-7-{8-fluoro-2-methylimidazo[1,2-a]pyridin-6-yl}quinazolin-4-one]: the IC50 in the assay with HTT mRNA (setting [1]), in the assay with HTT mRNA (setting [2]) and in the assay on HTT was 100 to 1000 nM in each case. Moreover, in the assay with HTT mRNA (RT-qPCR), the AC50 lay in the range of 100 to 1000 nM.
Take `Cc1ncc(-c2ccc3c(=O)n(C4CCNCC4)cnc3c2)cn1` [Compound 354, 7-(2-methylpyrimidin-5-yl)-3-(piperidin-4-yl)quinazolin-4(3H)-one]: the IC50 with HTT mRNA (setting [1]), with HTT mRNA (setting [2]) and in the assay on HTT was 1000 to 10000 nM each time. Moreover, the AC50 in the assay on HTT mRNA (RT-qPCR) lay within 1000 to 10000 nM.
As to `Cc1cn2nc(-c3cc(C)c4c(=O)n(C5CCNCC5)cnc4c3)cc(C)c2n1` [Compound 355], the figures for the IC50 in the assay with HTT mRNA (setting [1]), with HTT mRNA (setting [2]) and in the assay on HTT were < 100 nM, 100 to 1000 nM and < 100 nM, respectively. The AC50 with HTT mRNA (RT-qPCR) was in the range of 100 to 1000 nM.
For the compound `Cc1cn2nc(-c3cc(F)c4c(=O)n([C@@H]5CCNC6(CC6)C5)cnc4c3)cc(C)c2n1` [Compound 356], the IC50 in the assay on HTT mRNA (setting [1]) was < 100 nM; in the assay with HTT mRNA (setting [2]), 100 to 1000 nM; in the assay with HTT, < 100 nM. Further, in the assay on HTT mRNA (RT-qPCR), the AC50 lay within 100 to 1000 nM.
Turning to `CNc1cc(-c2cc(F)c3nc(C)cn3c2)cc2ncn(C3CCNCC3)c(=O)c12` [Compound 358, 7-{8-fluoro-2-methylimidazo[1,2-a]pyridine-6-yl}-5-(methylamino)-3-(piperidin-4-yl)quinazolin-4-one], the IC50 was > 10000 nM in the assay on HTT mRNA (setting [1]), 1000 to 10000 nM in the assay on HTT mRNA (setting [2]) and 1000 to 10000 nM with HTT. For the same compound, in the assay with HTT mRNA (RT-qPCR), the AC50 lay within 1000 to 10000 nM.
As to `CNc1cc(-c2cc(C)c3nc(C)cn3n2)cc2ncn(C3CCNCC3)c(=O)c12` [Compound 359, 7-{2,8-dimethylimidazo[1,2-b]pyridazin-6-yl}-5-(methylamino)-3-(piperidin-4-yl)quinazolin-4-one], the IC50 in the assay with HTT mRNA (setting [1]) was in the range of 1000 to 10000 nM; with HTT mRNA (setting [2]) it was 1000 to 10000 nM; in the assay on HTT it was 100 to 1000 nM. For the same compound, the AC50 with HTT mRNA (RT-qPCR) lay within 1000 to 10000 nM.
With `CNc1cc(-c2cn3cc(C)nc3c(C)n2)cc2ncn(C3CCNCC3)c(=O)c12` [Compound 360, 7-{2,8-dimethylimidazo[1,2-a]pyrazine-6-yl}-5-(methylamino)-3-(piperidin-4-yl)quinazolin-4-one], the IC50 with HTT mRNA (setting [1]), in the assay with HTT mRNA (setting [2]) and in the assay with HTT was > 10000 nM each time. Further, the AC50 in the assay with HTT mRNA (RT-qPCR) was > 10000 nM.
Consider `Cc1cc(-c2cc(F)c3c(=O)n(C4CCNC5(CC5)C4)cnc3c2)nc2cn(C)nc12` (stereo not drawn) [Compound 361, 3-{4-azaspiro[2.5]octan-7-yl}-7-{2,7-dimethylpyrazolo[4,3-b]pyridin-5-yl}-5-fluoroquinazolin-4-one], for which the IC50 in the assay on HTT mRNA (setting [1]), in the assay on HTT mRNA (setting [2]) and in the assay with HTT was < 100 nM in each case. Besides, the AC50 in the assay on HTT mRNA (RT-qPCR) was < 100 nM.
On to `Cc1cn2nc(-c3cc(O)c4c(=O)n(C5CCNC5)cnc4c3)cc(C)c2n1` (stereo not drawn) [Compound 362, 7-{2,8-dimethylimidazo[1,2-b]pyridazin-6-yl}-5-hydroxy-3-(pyrrolidin-3-yl)quinazolin-4-one], for which the IC50 with HTT mRNA (setting [1]), in the assay with HTT mRNA (setting [2]) and in the assay with HTT was > 10000 nM throughout. Further, in the assay with HTT mRNA (RT-qPCR), the AC50 is > 10000 nM.
Consider `CNc1cc(-c2cc(C#N)c3nc(C)cn3c2)cc2ncn(C3CCNCC3)c(=O)c12` [Compound 363, 2-methyl-6-[5-(methylamino)-4-oxo-3-(piperidin-4-yl)quinazolin-7-yl]imidazo[1,2-a]pyridine-8-carbonitrile], for which the IC50 in the assay on HTT mRNA (setting [1]), with HTT mRNA (setting [2]) and in the assay on HTT was > 10000 nM each time. For the same compound, the AC50 with HTT mRNA (RT-qPCR) was > 10000 nM.

The values are drawn from US20250332173A1, “COMPOUNDS AND METHODS FOR MODULATING NUCLEIC ACID SPLICING” (REMIX THERAPEUTICS INC., priority 2021, published 2025).
